Measurements: PMC6150365, “Simultaneous Determination of Seven Components in Rat Plasma by the UPLC-MS/MS Method and Application of Pharmacokinetic Studies to SimiaoYong’an Decoction” (Molecules : A Journal of Synthetic Chemistry and Natural …, 2017)

Experiment: Pharmacokinetic study in rats after oral administration of SYD extract and its single and combined TCM extracts (UPLC-MS/MS of plasma)
Settings: male, Sprague-Dawley, rat, plasma, po, n = 6; for AUC(0-t) / AUC(0-inf) / Cmax / MRT last / MRT inf / Tmax: rat plasma; for MRT last: MRT(0–t); for MRT inf: MRT(0–∞)
[1] = 2.49 g/kg, oral SN extract 2.49 g/kg
[2] = 3.38 g/kg extract (6.67 g/kg as herbs), oral SN + GU extract
[3] = 3.38 g·kg^−1 (extract), oral SN + GU extract
[4] = 3.98 g/kg extract (8.33 g/kg as herbs), oral SN + AS extract
[5] = 4.5 g·kg^−1 (extract), oral LJ + SN extract
[6] = 4.5 g·kg^−1 extract, oral LJ + SN extract
[7] = 4.73 g/kg, oral LJ + SN + GU extract 4.73 g/kg
[8] = 5.43 g/kg, oral LJ + SN + AS extract 5.43 g/kg
[9] = 8.25 g/kg, oral SYD extract 8.25 g/kg

- AUC(0-t) [1]: 310 ± 110 ng·h/mL
- AUC(0-inf) [1]: 320 ± 110 ng·h/mL
- Cmax [1]: 110 ± 50 ng/mL
- MRT last [1]: 4.75 ± 1.17 h
- MRT inf [1]: 5.69 ± 3.19 h
- Tmax [1]: 1.08 ± 0.47 h
- half-life (2.49 g/kg, t1/2, rat plasma, oral SN extract 2.49 g/kg): 3.34 ± 3.36 h
- MRT last [2]: 5.72 ± 2.55 h
- MRT inf [2]: 47.5 ± 78.2 h
- Tmax [2]: 1.25 ± 0.59 h
- half-life (3.38 g/kg extract (6.67 g/kg as herbs), t1/2, rat plasma, oral SN + GU extract): 18.3 ± 6.9 h
- AUC(0-t) [3]: 80 ± 10 ng·h/mL
- AUC(0-inf) [3]: 110 ± 80 ng·h/mL
- Cmax (3.38 g·kg^−1 extract, oral SN + GU extract): 50 ± 10 ng/mL
- AUC(0-t) [4]: 100 ± 70 ng·h/mL
- AUC(0-inf) [4]: 130 ± 90 ng·h/mL
- MRT last [4]: 4.51 ± 2.04 h
- MRT inf [4]: 41.9 ± 67.3 h
- half-life (3.98 g·kg^−1, t1/2, rat plasma, oral SN + AS extract): 16.6 ± 1.4 h
- Cmax (3.98 g·kg^−1 extract, oral SN + AS extract): 70 ± 10 ng/mL
- MRT last [5]: 5.32 ± 1.39 h
- MRT inf [5]: 46.3 ± 70.7 h
- half-life (4.5 g·kg^−1 (extract), t1/2, rat plasma, oral LJ + SN extract): 15.8 ± 1.19 h
- AUC(0-t) [6]: 60 ± 10 ng·h/mL
- AUC(0-inf) [6]: 90 ± 10 ng·h/mL
- Cmax [6]: 30 ng/mL
- AUC(0-t) [7]: 150 ± 70 ng·h/mL
- AUC(0-inf) [7]: 190 ± 110 ng·h/mL
- Cmax [7]: 80 ng/mL
- MRT last [7]: 3.17 ± 0.59 h
- MRT inf [7]: 22.6 ± 31.1 h
- Tmax [7]: 1.79 ± 0.51 h
- half-life (4.73 g/kg, t1/2, rat plasma, oral LJ + SN + GU extract 4.73 g/kg): 13.3 ± 4.59 h
- AUC(0-t) [8]: 110 ± 80 ng·h/mL
- AUC(0-inf) [8]: 110 ± 80 ng·h/mL
- Cmax [8]: 50 ng/mL
- MRT last [8]: 3.16 ± 0.68 h
- MRT inf [8]: 13 ± 19.9 h
- Tmax [8]: 1.63 ± 0.49 h
- half-life (5.43 g/kg, t1/2, rat plasma, oral LJ + SN + AS extract 5.43 g/kg): 9.79 ± 5.03 h
- AUC(0-t) [9]: 120 ± 90 ng·h/mL
- AUC(0-inf) [9]: 140 ± 90 ng·h/mL
- Cmax [9]: 70 ± 70 ng/mL
- MRT last [9]: 3.92 ± 1.31 h
- MRT inf [9]: 19.8 ± 8.74 h
- Tmax [9]: 1.5 h
- half-life (8.25 g/kg, t1/2, rat plasma, oral SYD extract 8.25 g/kg): 11.2 ± 2.64 h
- Tmax ([…], oral SN + AS + GU extract […]): 0.83 ± 0.13 h
- half-life ([…], t1/2, rat plasma, oral SN + AS + GU extract […]): 15.5 ± 1.54 h
Structure (SMILES): C[C@]1(OC(=O)/C=C/c2ccccc2)C[C@@H](O)[C@]2(O)C=CO[C@@H](O[C@@H]3O[C@H](CO)[C@@H](O)[C@H](O)[C@H]3O)[C@@H]21 [Harpagoside, harpagoside]
